“And” between values parts separate entries of the source, which are not always exact repeats. Equal entries are not always repeated.
Tested on: CD4+ T cell (C57BL/6) co-cultured with dendritic cell (BALB/C)
Test: Inhibition test of T-cell proliferation, 1 way mixed lymphocyte reaction (MLR), H3-thymidine incorporation
Type: cell-based, mouse
Conditions: for % of inhibition = [cpm (untreated) - cpm(treated)] / cpm (untreated): T cell proliferation, from photo-nonexposed CPM
Excerpt: It is typically known that the increase of CD4^+ T cells is observed in atopic dermatitis lesion, and cytokines secreted from CD4^+ T cells make the condition of atopic dermatitis worse (DirkJan Hijnen et al., J Invest Dermatol 125:1149-1155, 2005). Therefore, we tried to determine the therapeutic effectiveness of cobalamin derivatives for treatment of atopic dermatitis by examining the changes of T-cell proliferation before and after photolysis of cobalamin derivatives.
When the T cell separated from one mouse strain and the dendritic cell (DC, antigen presenting cell) separated from another mouse strain are mixed together, the immune response by the T cell occurs. This immune response is a tissue incompatibility reaction due to the difference of the genes of MHC molecules of the two strains.
In this experiment, the target cell (DC) derived from BALB/C strain and the CD4^+ T cell (the responder) derived from C57BL/6 (B6) strain are mixed and co-cultured to induce a 1 way MLR. In this process, several types of cobalamin derivatives (cyanocobalamin, hydroxocobalamin, methylcobalamin, adenosylcobalamin) are treated, and then the intensities of the immune response are measured by comparing the T cell proliferation for each of the cobalamin derivative-treated group.
1) Bone marrow derived dendritic cells were isolated from 8 weeks BALB/c mouse as follows.
2) The femur and tibiae were separated from a mouse, and then soaked in PBS. The muscle tissues were removed from them. Then, the bones were soaked in 70% EtOH for 2 minutes for sterilization, and then EtOH was washed off with PBS.
3) A needle of a 10 ml syringe filled with PBS was inserted into ends of the bones and then PBS was injected into the bones to isolate the bone marrow.
4) The obtained bone marrow was made into a single cell suspension by pipetting.
5) 1˜1.5×10^7 of leukocytes were isolated per one femur or one tibia.
6) Culture medium was prepared (RPMI-1640+Penicillin/Streptomycin, L-Glutamin, 2-MercaptoEtOH, 10% Fetal Bovine Serum, Recombinant mouse GM-CSF). 2×10^6 of BM leukocytes were plated onto 100 mm Petri dish with 10 ml of the culture medium. At this time, […] (in case of 20 ng/ml, 5×10^6 U/mg) of rmGM-CSF was added. (Day 0)
7) Day 3, 10 ml of culture medium (including 200 U/ml GM-CSF) was added.
8) Day 6, culture medium replacement: 10 ml of culture medium from the culture plate was taken, and then centrifuged. The obtained cells were released in a fresh medium containing GM-CSF 200 U/ml, and then they were put back into the original culture plate. Through this process, half of the entire culture medium could be changed to a new medium.
9) Day 8, culture medium replacement: Half of the culture medium was replaced in the same way as day 6.
10) Day 9, after collecting BM-DCs by pipetting carefully, and centrifuging at 300 g/RT/5 min, they were poured into 10 ml of fresh culture medium. The BM-DCs were plated on 100 mm tissue culture plate. 100 U/ml of rmGM-CSF and 1 μg/ml of LPS were added to the culture medium. The BM-DCs were fully maturated by culturing for an extra day.
1) The spleen was separated out from C57BL/6 mouse, and was ground by using the nylon mesh in PBS and then centrifuged at 300×g for 4 min.
2) The obtained cell pellet was treated with 5 ml of ACK RBC lysing solution for 5 minutes in RT, and then washed with PBS.
3) After resuspending the cells in 500 μl of MACs buffer (PBS+EDTA/BSA), the cells were stained with 50 μl of anti-CD4 microbead. Then, the CD4^+ T cell (1×10^7 cells) were separated from the cells according to the manual of MACS kit (Miltenyi Company).
1) The experiment for determining MLR response was designed to comprise control group, photo-exposed group, and photo-nonexposed group as follows. Each group was tested in triplicate according to concentration and substance on 3 wells. […]

[1] = 500 μM (highest concentration), 500 µM
[2] = 10 μM (lowest concentration), 10 µM

Molecule: C/C1=C2/[N-][C@H]([C@H](CC(N)=O)[C@@]2(C)CCC(=O)NC[C@@H](C)OP(=O)([O-])O[C@H]2[C@@H](O)[C@@H](n3cnc4cc(C)c(C)cc43)O[C@@H]2CO)[C@]2(C)N=C(/C(C)=C3N=C(/C=C4N=C1[C@@H](CCC(N)=O)C\4(C)C)[C@@H](CCC(N)=O)[C@]\3(C)CC(N)=O)[C@@H](CCC(N)=O)[C@]2(C)CC(N)=O.[Co+3].[OH-] [H-co, hydroxocobalamin]
- % of inhibition = [cpm (untreated) - cpm(treated)] / cpm (untreated) (30 μM): 25.76% and 23.13% and 24.28%
- % of inhibition = [cpm (untreated) - cpm(treated)] / cpm (untreated) (100 μM): 37.0706% and 42.13% and 34.41%
- % of inhibition = [cpm (untreated) - cpm(treated)] / cpm (untreated) [1]: 67.35% and 75.19% and 70.9%
- radioactivity (CPM), single wells of triplicate (photo-exposed group (under the light for 1 hr before treatment), 3 μM, listed as Photo-H-co): 52932 CPM and 46313 CPM and 40358 CPM
- radioactivity (CPM), single wells of triplicate (photo-exposed group (under the light for 1 hr before treatment), 10 μM, listed as Photo-H-co): 42615 CPM and 39452 CPM and 33765 CPM
- radioactivity (CPM), single wells of triplicate (photo-exposed group (under the light for 1 hr before treatment), 30 μM, listed as Photo-H-co): 34824 CPM and 37105 CPM and 32225 CPM
- radioactivity (CPM), single wells of triplicate (photo-exposed group (under the light for 1 hr before treatment), 100 μM, listed as Photo-H-co): 37189 CPM and 23765 CPM and 30994 CPM
- radioactivity (CPM), single wells of triplicate (photo-nonexposed group, 10 μm): 41967 CPM and 33493 CPM and 38243 CPM
- radioactivity (CPM), single wells of triplicate (photo-nonexposed group, 30 μm): 33669 CPM and 34662 CPM and 34340 CPM
- radioactivity (CPM), single wells of triplicate (photo-nonexposed group, 100 μm): 28541 CPM and 26247 CPM and 29747 CPM
- radioactivity (CPM), single wells of triplicate (photo-nonexposed group, 500 μm): 14806 CPM and 11254 CPM and 13198 CPM

Molecule: cyanocobalamin [C-co]
- % of inhibition = [cpm (untreated) - cpm(treated)] / cpm (untreated) [2]: 4.28% and 11.95% and 9.071%
- radioactivity (CPM), single wells of triplicate (photo-exposed group (under the light for 1 hr before treatment), 3 μM, listed as Photo-C-co): 41161 CPM and 57338 CPM and 56253 CPM
- radioactivity (CPM), single wells of triplicate (photo-exposed group (under the light for 1 hr before treatment), 10 μM, listed as Photo-C-co): 39141 CPM and 36381 CPM and 39492 CPM
- radioactivity (CPM), single wells of triplicate (photo-exposed group (under the light for 1 hr before treatment), 30 μM, listed as Photo-C-co): 38702 CPM and 34451 CPM and 34078 CPM
- radioactivity (CPM), single wells of triplicate (photo-exposed group (under the light for 1 hr before treatment), 100 μM, listed as Photo-C-co): 50511 CPM and 27692 CPM and 30567 CPM
- radioactivity (CPM), single wells of triplicate (photo-nonexposed group, 10 μm): 43413 CPM and 39935 CPM and 41240 CPM
- radioactivity (CPM), single wells of triplicate (photo-nonexposed group, 30 μm): 42882 CPM and 30722 CPM and 40187 CPM
- radioactivity (CPM), single wells of triplicate (photo-nonexposed group, 100 μm): 41663 CPM and 48408 CPM and 39928 CPM
- radioactivity (CPM), single wells of triplicate (photo-nonexposed group, 500 μm): 36303 CPM and 40107 CPM

Molecule: C/C1=C2/[N-][C@H]([C@H](CC(N)=O)[C@@]2(C)CCC(=O)NC[C@@H](C)OP(=O)([O-])O[C@H]2[C@@H](O)[C@@H](n3cnc4cc(C)c(C)cc43)O[C@@H]2CO)[C@]2(C)N=C(/C(C)=C3N=C(/C=C4N=C1[C@@H](CCC(N)=O)C\4(C)C)[C@@H](CCC(N)=O)[C@]\3(C)CC(N)=O)[C@@H](CCC(N)=O)[C@]2(C)CC(N)=O.[CH2-][C@H]1O[C@@H](n2cnc3c(N)ncnc32)[C@H](O)[C@@H]1O.[Co] [A-co, adenosylcobalamin]
- % of inhibition = [cpm (untreated) - cpm(treated)] / cpm (untreated) [2]: 57.9% and 58.03% and 60.21%
- % of inhibition = [cpm (untreated) - cpm(treated)] / cpm (untreated) (30 μM): 66.99% and 77.79% and 83.85%
- % of inhibition = [cpm (untreated) - cpm(treated)] / cpm (untreated) (100 μM): 89.85% and 91.31% and 95.18%
- % of inhibition = [cpm (untreated) - cpm(treated)] / cpm (untreated) [1]: 96.51% and 97.48% and 98.07%
- radioactivity (CPM), single wells of triplicate (photo-exposed group (under the light for 1 hr before treatment), 3 μM, listed as Photo-A-co): 26305 CPM and 14772 CPM and 24306 CPM
- radioactivity (CPM), single wells of triplicate (photo-exposed group (under the light for 1 hr before treatment), 10 μM, listed as Photo-A-co): 2225 CPM and 3123 CPM and 1922 CPM
- radioactivity (CPM), single wells of triplicate (photo-exposed group (under the light for 1 hr before treatment), 30 μM, listed as Photo-A-co): 997 CPM and 1091 CPM and 1391 CPM
- radioactivity (CPM), single wells of triplicate (photo-exposed group (under the light for 1 hr before treatment), 100 μM, listed as Photo-A-co): 696 CPM and 1259 CPM and 1333 CPM
- radioactivity (CPM), single wells of triplicate (photo-nonexposed group, 10 μm): 19094 CPM and 19033 CPM and 18047 CPM
- radioactivity (CPM), single wells of triplicate (photo-nonexposed group, 30 μm): 14064 CPM and 10071 CPM and 7326 CPM
- radioactivity (CPM), single wells of triplicate (photo-nonexposed group, 500 μm): 1585 CPM and 1141 CPM and 875 CPM

Molecule: C/C1=C2/[N-][C@H]([C@H](CC(N)=O)[C@@]2(C)CCC(=O)NC[C@H](C)OP(=O)([O-])O[C@H]2[C@@H](O)[C@@H](n3cnc4cc(C)c(C)cc43)O[C@@H]2CO)[C@]2(C)N=C(/C(C)=C3N=C(/C=C4N=C1[C@@H](CCC(N)=O)C\4(C)C)[C@@H](CCC(N)=O)[C@]\3(C)CC(N)=O)[C@@H](CCC(N)=O)[C@]2(C)CC(N)=O.[CH3-].[Co+3] [M-co, methylcobalamin]
- % of inhibition = [cpm (untreated) - cpm(treated)] / cpm (untreated) [1]: 49.98% and 36.23% and 45.1184%
- radioactivity (CPM), single wells of triplicate (photo-exposed group (under the light for 1 hr before treatment), 3 μM, listed as Photo-M-co): 33467 CPM and 32885 CPM and 50368 CPM
- radioactivity (CPM), single wells of triplicate (photo-exposed group (under the light for 1 hr before treatment), 10 μM, listed as Photo-M-co): 42973 CPM and 43693 CPM and 41162 CPM
- radioactivity (CPM), single wells of triplicate (photo-exposed group (under the light for 1 hr before treatment), 30 μM, listed as Photo-M-co): 18844 CPM and 28639 CPM and 29522 CPM
- radioactivity (CPM), single wells of triplicate (photo-nonexposed group, 10 μm): 37594 CPM and 43624 CPM and 44951 CPM
- radioactivity (CPM), single wells of triplicate (photo-nonexposed group, 30 μm): 36641 CPM and 28896 CPM and 40298 CPM
- radioactivity (CPM), single wells of triplicate (photo-nonexposed group, 100 μm): 37066 CPM and 30678 CPM and 39514 CPM
- radioactivity (CPM), single wells of triplicate (photo-nonexposed group, 500 μm): 22687 CPM and 28924 CPM and 24891 CPM

Source: patent publication US20130084329A1, “COMPOSITIONS FOR EXTERNAL APPLICATION, CONTAINING ADENOSYLCOBALAMIN FOR IMPROVEMENT OF SKIN DISEASES” (HANALL BIOPHARMA CO., LTD., priority 2005, published 2013)
